From patent US8829007B2 (priority 2009, dated 2014)
Like-named read-outs stand apart in the source and are kept apart here.

Test system: influenza A virus (A/PR/8/34)
Experiment: microbe, parasite or virus in culture
Format: cell-based
[1] = Influenza A virus, PR/8, MDCK, MDCK cells infected with A/PR/8/34, cell protection (CPE), read-out: IC50 (mean all)
[2] = Influenza A virus, PR/8, MDCK, read-out: IC50 (mean all)
[3] = Influenza A virus, PR/8, MDCK, mean all, A/PR/8/34 infected MDCK cells, CPE assay, read-out: IC50
[4] = mean all, A/PR/8/34 infected MDCK cells, CPE assay, read-out: IC50
[5] = Influenza A virus, PR/8, MDCK, MDCK cells infected with A/PR/8/34, survival of infected cells, class symbols, read-out: IC50 (mean all)

Compound	IC50 [1] [µM]	IC50 [3] [µM]	further results
Cc1ccccc1CN1CCC[C@@H](CNc2nc(-c3c[nH]c4ncc(Cl)cc34)ncc2F)C1 [Compound 139, (S)-2-(5-chloro-1H-pyrrolo[2,3-b]pyridin-3-yl)-5-fluoro-N-((1-(2-methylbenzyl)piperidin-3-yl)methyl)pyrimidin-4-amine]	> 20		
CCCNC(=O)N1CCC[C@H](CNc2nc(-c3c[nH]c4ncccc34)ncc2F)C1 [Compound 276]	> 20		
CCC(=O)N1CCCC(CNc2nc(-c3c[nH]c4ncccc34)ncc2F)C1 (stereo not drawn) [Compound 269]			IC50 [2]: 5 to 20 µM
CCCC(=O)N[C@@H]1CCCC[C@H]1Nc1nc(-c2c[nH]c3ncccc23)ncc1F [Compound 358, N-[(1R,2R)-2-[[5-fluoro-2-(1H-pyrrolo[2,3-b]pyridin-3-yl)pyrimidin-4-yl]amino]cyclohexyl]butanamide]		> 20	
O=C(Cn1cnnn1)N1CCC[C@@H](CNc2nc(-c3c[nH]c4ncc(Cl)cc34)ncc2F)C1 [Compound 48, (S)-1-(3-((2-(5-chloro-1H-pyrrolo[2,3-b]pyridin-3-yl)-5-fluoropyrimidin-4-ylamino)methyl)piperidin-1-yl)-2-(1H-tetrazol-1-yl)ethanone]	> 20		
O=C(OCC1CCOC1)N1CCC(Nc2nc(-c3c[nH]c4ncc(Cl)cc34)ncc2F)C1 (stereo not drawn) [Compound 475]			IC50 [4]: > 20 µM
(R)-ethyl 3-((2-(5-chloro-1H-pyrrolo[2,3-b]pyridin-3-yl)pyrimidin-4-ylamino)methyl)piperidine-1-carboxylate [Compound 495]			IC50 (read-out: IC50 (mean all)): 5 to 20 µM
CC(=O)NC1CCCCC1Nc1nc(-c2c[nH]c3ncc(Cl)cc23)ncc1F (stereo not drawn) [Compound 429]			IC50 [4]: 5 to 20 µM
CCC(=O)N1CCCC[C@H]1CNc1nc(-c2c[nH]c3ncccc23)ncc1F [Compound 257, (S)-1-(2-((5-fluoro-2-(1H-pyrrolo[2,3-b]pyridin-3-yl)pyrimidin-4-ylamino)methyl)piperidin-1-yl)propan-1-one]	5 to 20		
CCCC(=O)N[C@@H]1CCCC[C@H]1Nc1nc(-c2c[nH]c3ncc(Cl)cc23)ncc1F [Compound 369, N-[(1R,2R)-2-[[2-(5-chloro-1H-pyrrolo[2,3-b]pyridin-3-yl)-5-fluoro-pyrimidin-4-yl]amino]cyclohexyl]butanamide]		> 20	
CCOC(=O)N1CCC[C@H](Nc2nc(-c3c[nH]c4ncc(Cl)cc34)ncc2F)C1 [Compound 441]		5 to 20	
O=S(=O)(CC(F)(F)F)N1CCCC[C@@H]1CNc1nc(-c2c[nH]c3ncc(Cl)cc23)ncc1F [Compound 387]			IC50 [4]: 5 to 20 µM
O=C(C1CNCCO1)N1CC[C@H](Nc2nc(-c3c[nH]c4ncc(Cl)cc34)ncc2F)C1 (stereo partly drawn) [Compound 483]		> 20	
CS(=O)(=O)N1CCCC[C@H]1CNc1nc(-c2c[nH]c3ncc(Cl)cc23)ncc1F [Compound 384, (S)-2-(5-chloro-1H-pyrrolo[2,3-b]pyridin-3-yl)-5-fluoro-N-((1-(methylsulfonyl)-piperidin-2-yl)methyl)pyrimidin-4-amine]		< 5	
O=C(N[C@@H]1CCCC[C@@H]1Nc1nc(-c2c[nH]c3ncccc23)ncc1F)C1CCCC1 (relative stereo) [Compound 343, N-[cis-2-[[5-fluoro-2-(1H-pyrrolo[2,3-b]pyridin-3-yl)pyrimidin-4-yl]amino]cyclohexyl]cyclopentanecarboxamide]		> 20	
CN1CCC(Nc2nc(-c3c[nH]c4ncccc34)ncc2F)C1=O (stereo not drawn) [Compound 376]			IC50 [4]: 5 to 20 µM
CC(C)CC(=O)N1CCC[C@H](CNc2ccnc(-c3c[nH]c4ncc(Cl)cc34)n2)C1 [Compound 494, (R)-1-(3-((2-(5-chloro-1H-pyrrolo[2,3-b]pyridin-3-yl)pyrimidin-4-ylamino)methyl)piperidin-1-yl)-3-methylbutan-1-one]			IC50 [5]: 5 to 20 µM
COc1cccc(C(=O)N2CCCC[C@@H]2CNc2nc(-c3c[nH]c4ncc(Cl)cc34)ncc2F)c1 [Compound 184, (R)-(2-((2-(5-chloro-1H-pyrrolo[2,3-b]pyridin-3-yl)-5-fluoropyrimidin-4-ylamino)methyl)piperidin-1-yl)(3-methoxyphenyl)methanone]	> 20		
CC(=O)N1CC[C@H](Nc2nc(-c3c[nH]c4ncc(Cl)cc34)ncc2F)C1 [Compound 480]		< 5	
COc1cccc(C(=O)N2CCCC[C@H]2CNc2nc(-c3c[nH]c4ncc(Cl)cc34)ncc2F)c1 [Compound 174, (S)-(2-((2-(5-chloro-1H-pyrrolo[2,3-b]pyridin-3-yl)-5-fluoropyrimidin-4-ylamino)methyl)piperidin-1-yl)(3-methoxyphenyl)methanone]	> 20		
COc1ccccc1C(=O)N1CCCC[C@H]1CNc1nc(-c2c[nH]c3ncccc23)ncc1F [Compound 260, (S)-(2-((5-fluoro-2-(1H-pyrrolo[2,3-b]pyridin-3-yl)pyrimidin-4-ylamino)methyl)piperidin-1-yl)(2-methoxyphenyl)methanone]	> 20		
1-[trans-2-[[2-(5-chloro-1H-pyrrolo[2,3-b]pyridin-3-yl)-5-fluoro-pyrimidin-4-yl]amino]cyclohexyl]-3-propyl-urea [Compound 350]			IC50 (read-out: IC50): 5 to 20 µM
CS(=O)(=O)N[C@@H]1CCCC[C@H]1Nc1nc(-c2c[nH]c3ncccc23)ncc1F [Compound 361, N-[(1R,2R)-2-[[5-fluoro-2-(1H-pyrrolo[2,3-b]pyridin-3-yl)pyrimidin-4-yl]amino]cyclohexyl]methanesulfonamide]		> 20	
CC(C)(C)CC(=O)N1CCC[C@@H](CNc2nc(-c3c[nH]c4ncc(Cl)cc34)ncc2F)C1 [Compound 42, (S)-1-(3-((2-(5-chloro-1H-pyrrolo[2,3-b]pyridin-3-yl)-5-fluoropyrimidin-4-ylamino)methyl)piperidin-1-yl)-3,3-dimethylbutan-1-one]	> 20		
COC(=O)/C=C/CN1CCC[C@@H](CNc2nc(-c3c[nH]c4ncc(Cl)cc34)ncc2F)C1 [Compound 138, (S,E)-methyl 4-(3-((2-(5-chloro-1H-pyrrolo[2,3-b]pyridin-3-yl)-5-fluoropyrimidin-4-ylamino)methyl)piperidin-1-yl)but-2-enoate]			IC50 [2]: > 20 µM
CN(C)[C@H]1CCCC[C@@H]1Nc1nc(-c2c[nH]c3ncc(Cl)cc23)ncc1F [Compound 523, (1S,2S)—N1-(2-(5-chloro-1H-pyrrolo[2,3-b]pyridin-3-yl)-5-fluoropyrimidin-4-yl)-N2,N2-dimethylcyclohexane-1,2-diamine]			IC50 [5]: > 20 µM
NC1CCCCC1Nc1nc(-c2c[nH]c3ncccc23)ncc1F (stereo not drawn) [Compound 4, N1-(5-fluoro-2-(1H-pyrrolo[2,3-b]pyridin-3-yl)pyrimidin-4-yl)cyclohexane-1,2-diamine]			IC50 (MDCK cells infected with A/PR/8/34, cell protection (CPE), read-out: IC50 (mean all)): > 20 µM
CC(C)(C)C(=O)N1CCC[C@H](Nc2nc(-c3c[nH]c4ncc(Cl)cc34)ncc2F)C1 [Compound 437]		> 20	
C[N+](C)(C)CC(=O)N1CCC[C@@H](CNc2nc(-c3c[nH]c4ncc(Cl)cc34)ncc2F)C1 [Compound 43, (S)-2-(3-((2-(5-chloro-1H-pyrrolo[2,3-b]pyridin-3-yl)-5-fluoropyrimidin-4-ylamino)methyl)piperidin-1-yl)-N,N,N-trimethyl-2-oxoethanaminium]	> 20		
Fc1cnc(-c2c[nH]c3ncc(Cl)cc23)nc1NC[C@@H]1CCCN(CC2CCCCC2)C1 [Compound 134, (S)-2-(5-chloro-1H-pyrrolo[2,3-b]pyridin-3-yl)-N-((1-(cyclohexylmethyl)piperidin-3-yl)methyl)-5-fluoropyrimidin-4-amine]	5 to 20		
